This is an account of results in patent publication US20240382529A1, “COMPOSITIONS AND METHODS FOR TREATING SPINAL CORD INJURIES” (ASTERIAS BIOTHERAPEUTICS, INC., priority 2022, published 2024).

Series [1] relates to subacute cervical spinal cord injuries (SCI). In words: Phase 1/2a cervical SCI trial: safety, adverse events. It is filed as in vivo, human. The method, then: Study Design. The trial design was an open-label, staggered dose escalation, cross-sequential, multicenter study. Three sequential, escalating doses of AST-OPC1 were administered at a single time point between 21 and 42 days post-injury to subjects with subacute cervical spinal cord injuries (SCI). Subjects received AST-OPC1 via direct intra-spinal injection using a Syringe Positioning Device (SPD). To prevent rejection of engraftment, low dose tacrolimus was initiated 6 to 12 hours after and intra-spinal injection, and continued for 46 days, tapered from Day 46 to Day 60, and was discontinued at Day 60. Subjects were followed for 1 year following administration of AST-OPC1 under this protocol. Male or female subjects from 18 to 69 years of age at time of consent with sensorimotor complete, traumatic SCI (American Spinal Injury Association Impairment Scale A) or sensorimotor incomplete, traumatic SCI (American Spinal Injury Association Impairment Scale B). […] There was a single spinal cord lesion on a post-stabilization magnetic resonance imaging (MRI) scan, with sufficient visualization of the spinal cord injury epicenter and lesion margins to enable post-injection safety monitoring. Subjects were able to participate in an elective surgical procedure to inject AST-OPC1 21 to 42 days following SCI. Subjects received a single dose of either 2×10^6, 1×10^7, or 2×10^7 AST-OPC1 viable cells by injection, administered 21 to 42 days following SCI. The product was delivered intraoperatively into the spinal cord using the Syringe Positioning Device. The AST-OPC1 batch numbers used in this study were M08D1A, M22D1A and M25D1A. Single administration of AST-OPC1 was provided with 1 year of follow-up. Schematics of the planned study timeline, and subject screening and treatment, are provided in FIG. 6 and FIG. 7, respectively. A schematic diagram of the final open-label, staggered dose-escalation, multicenter Phase 1/2a clinical trial is shown in FIG. 8. An overview of study visits for the one-year protocol is presented in the study schema in FIG. 9.
A neurological examination was completed using the standardized International Standards for Neurological Classification of Spinal Cord Injury (ISNCSCI) examination for motor and sensory testing and for designation of the American Spinal Injury Association impairment scale. The ISNCSCI is used for efficacy with respect to improved motor function in the extremities, improved sensory function, and/or a descending neurological level. Safety assessments included physical examination, vital signs, ISNCSCI neurological examination, pain questionnaire (International Spinal Cord Injury Pain Basic Data Set, ISCIPBDS), electrocardiogram (ECG), Magnetic Resonance Imaging (MRI), laboratory tests, concomitant medications, and adverse events (AEs). Results for the ISNCSCI were listed for each subject by scheduled visit and analyzed by change in motor level and motor scores as well as other exploratory assessments of arm/hand function, self-care ability and overall volitional performance. Adverse events were tabulated by system organ class and by preferred term within system organ class according to the Medical Dictionary for Regulatory Activities (MedDRAR) Version 18.0. S[…] of the safety data was performed using descriptive statistical methods including AEs incidence, severity and relatedness to AST-OPC1, to the injection procedure for product administration, and concomitant immunosuppression with tacrolimus. The number of laboratory assessments (hematology, clinical chemistry) that were below, within, or above the normal laboratory reference range were summarized for each analyte at scheduled study visits. Vital signs were summarized by calculating the mean, standard deviation, median, and range of values at each of the protocol-specified time points.
Study Endpoints. […]

Series [2] deals with T3 to T11 neurologically complete spinal cord injuries (SCI). The series is described as follows: Phase 1 thoracic SCI trial of LCTOPC1 (NCT01217008): safety, adverse events. It is filed as in vivo, human. The following applies: 60 days immunosuppression. As for the experimental part:
Study design. The trial design was an open-label, multicenter study. A single dose of 2×10^6 LCTOPC1 was injected within 7 to 14 days following SCI. Subjects who received LCTOPC1 also received tacrolimus to prevent rejection. Subjects will be followed by protocol for 15 years following administration of LCTOPC1. This study was a Phase 1, multi-center, non-randomized, a single group assignment interventional clinical trial. The Participants were enrolled from one of seven centers in the United Sates. The study was registered (NCT01217008) and the primary endpoint was safety, as measured by the frequency and severity of adverse events related to LCTOPC1, the injection procedure used to administer LCTOPC1, and/or the concomitant immunosuppression administered. The secondary endpoint was neurological function as measured by sensory scores and lower extremity motor scores on […] examinations. […] The primary endpoint was safety measured by the frequency and severity of adverse events related to the OPC1 injection, the injection procedure, and/or the concomitant immunosuppression administered. The secondary endpoint was neurological function as measured by sensory scores and lower extremity motor scores as measured by the […] examinations. […] The severity of AEs and the characterization of Serious Adverse Events (SAEs) were evaluated using standard FDA criteria. […]

Series [3] relates to dorsal funicular lesion (DFL) SCI model. The following applies: cited from earlier work.

With `C=CC[C@@H]1/C=C(\C)C[C@H](C)C[C@H](OC)[C@H]2O[C@@](O)(C(=O)C(=O)N3CCCC[C@H]3C(=O)O[C@H](/C(C)=C/[C@@H]3CC[C@@H](O)[C@H](OC)C3)[C@H](C)[C@@H](O)CC1=O)[C@H](C)C[C@@H]2OC` [Tacrolimus, tacrolimus], in series [1] (both, human, in vivo, 60 days), the “AEs related to Tacrolimus that were hypomagnesemia” value is listed as 8/11, the “Decreased Appetite: Severity” value is on record as “Grade 2”, the “Hypomagnesemia: Days from Injection” value is 5 to 43 days and the “Hypomagnesemia: Severity” value is 1-2 Grade. Also, in series [1] (both, human, in vivo, 60 days), the “Nausea: Days from Injection” value is 7 days and the “Nausea: Severity” value was “Grade 2”. In addition, in series [1] (causality Tacrolimus), the “Bacterial infection: Days from Injection” value is 30 days, the “Bacterial infection: Outcome” value is listed as “Resolved” and the “Bacterial infection: Severity” value was “Grade 3”. Besides, in series [1] (in vivo), the “Decreased Appetite: Outcome” value was “Resolved”, the “Hypomagnesemia: Outcome” value is listed as “Resolved”, the “Nausea: Outcome” value is “Resolved” and the tolerability of immunosuppression entry was “well-tolerated”. For the same molecule, in series [2], the “Grade 1 AEs possibly related specifically to tacrolimus” value is reported as “Seven Grade 1 AEs” and the “Grade 2 AEs possibly related specifically to tacrolimus” value is recorded as “nine Grade 2 AEs”.

B1: Decorin: extracellular small leucine-rich proteoglycan, TGF-β1/2 antagonist; recombinant form used in rat SCI models (protein, UniProt P07585 31-359, looked up)
Decorin: DEASGIGPEVPDDRDFEPSLGPVCPFRCQCHLRVVQCSDLGLDKVPKDLPPDTTLLDLQNNKITEIKDGDFKNLKNLHALILVNNKISKVSPGAFTPLVKLERLYLSKNQLKELPEKMPKTLQELRAHENEITKVRKVTFNGLNQMIVIELGTNPLKSSGIENGAFQGMKKLSYIRIADTNITSIPQGLPPSLTELHLDGNKISRVDAASLKGLNNLAKLGLSFNSISAVDNGSLANTPHLRELHLDNNKLTRVPGGLAEHKYIQVVYLHNNNISVVGSSDFCPPGHNTKKASYSGVSLFSNPVQYWEIQPSTFRCVYVRSAIQLGNYK
Take B1: the “effect on scarring and wound cavitation” value in series [3] (DFL SCI model, adult rats) is “suppressed acute scarring (fibrogenesis) and wound cavitation”. In addition, in series [3] (Decorin-treated vs PBS-treated DFL), the axonal regrowth result is “promoted axonal regrowth in both acute and chronic experiments”. For the same molecule, the “inflammation, glial scar formation, CSPG expression” value in series [3] (after acute spinal cord injury) was “inhibit inflammation, glial scar formation and CSPG expression”.
